{"source": "patent US8604073B2", "about": "“Antimicrobial composition” (Ethicon, Inc., priority 2006, dated 2013)", "key": {"MRSA 006": {"system": "MRSA 006", "experiment": "Zone of inhibition of treated Nu-Gel hydrogel squares on inoculated TSA agar", "method": "(§1) The zone of inhibition, which is defined as the average distance in millimeter from four edges of the square and four edges of the clear zone around the square, was measured."}, "MRSA-002": {"system": "MRSA-002", "experiment": "Viable plate count, resistant bacteria, protocol of Example 1", "method": "(§2) A portion of 0.05 ml of each dilution was added to 0.95 ml of bacterial culture (trypticase soy broth containing 10^6 CFU/ml).\nMRSA used are MRSA-002 and MRSA-006."}, "MRSE 700563 [1]": {"system": "MRSE 700563", "experiment": "Viable plate count, resistant bacteria, protocol of Example 1", "method": "as §2\nMRSA used are MRSA-002 and MRSA-006."}, "MRSE 51625": {"system": "MRSE 51625", "experiment": "Viable plate count, resistant bacteria, protocol of Example 1", "method": "as §2\nMRSA used are MRSA-002 and MRSA-006."}, "MRSA-006": {"system": "MRSA-006", "experiment": "Viable plate count, resistant bacteria, protocol of Example 1", "method": "as §2\nMRSA used are MRSA-002 and MRSA-006."}, "MRSE 700563 [2]": {"system": "MRSE 700563", "experiment": "Zone of inhibition of treated Nu-Gel hydrogel squares on inoculated TSA agar", "method": "as §1"}}}
{"compound": "CCCCCCCCCCCC(=O)N[C@@H](CCCN=C(N)N)C(=O)OCC.Cl", "note": "[LAE, ethyl ester of the lauramide of the arginine monohydrochloride]", "values": [{"measurement": "Zone of inhibition (mm) MRSA 006", "setting": "MRSA 006; 6 ug/cm^2, 48 hours at 37° C.", "result": 0, "unit": "mm"}, {"measurement": "CFU/ml MRSA-002", "setting": "MRSA-002; 5 ppm", "result": "5.0 × 10^6 CFU/ml"}, {"measurement": "CFU/ml MRSE 700563", "setting": "MRSE 700563 [1]; 5 ppm", "result": "4.0 × 10^8 CFU/ml"}, {"measurement": "CFU/ml MRSE 51625", "setting": "MRSE 51625; 5 ppm", "result": "1.2 × 10^9 CFU/ml"}, {"measurement": "CFU/ml MRSA-006", "setting": "MRSA-006; 5 ppm", "result": "6.2 × 10^8 CFU/ml"}, {"measurement": "Zone of inhibition (mm) MRSE 700563", "setting": "MRSE 700563 [2]; 6 ug/cm^2, 48 hours at 37° C.", "result": 0, "unit": "mm"}]}
{"compound": "Polymixin B [Polymixin B (PY)]", "values": [{"measurement": "Zone of inhibition (mm) MRSA 006", "setting": "MRSA 006; 60 ug/cm^2, 48 hours at 37° C.", "result": 0, "unit": "mm"}, {"measurement": "CFU/ml MRSA-002", "setting": "MRSA-002; 100 ppm", "result": "1.2 × 10^9 CFU/ml"}, {"measurement": "CFU/ml MRSE 700563", "setting": "MRSE 700563 [1]; 100 ppm", "result": "1.2 × 10^9 CFU/ml"}, {"measurement": "CFU/ml MRSE 51625", "setting": "MRSE 51625; 100 ppm", "result": "6.2 × 10^8 CFU/ml"}, {"measurement": "CFU/ml MRSA-006", "setting": "MRSA-006; 100 ppm", "result": "1.2 × 10^9 CFU/ml"}, {"measurement": "Zone of inhibition (mm) MRSE 700563", "setting": "MRSE 700563 [2]; 60 ug/cm^2, 48 hours at 37° C.", "result": 0, "unit": "mm"}]}
{"compound": "Cc1nnc(SCC2=C(C(=O)O)N3C(=O)[C@@H](NC(=O)Cn4cnnn4)[C@H]3SC2)s1", "note": "[Cefazolin (CF), Cefazolin]", "values": [{"measurement": "Zone of inhibition (mm) MRSA 006", "setting": "MRSA 006; 60 ug/cm^2, 48 hours at 37° C.", "result": 0, "unit": "mm"}, {"measurement": "CFU/ml MRSA-002", "setting": "MRSA-002; 100 ppm", "result": "1.1 × 10^9 CFU/ml"}, {"measurement": "CFU/ml MRSE 700563", "setting": "MRSE 700563 [1]; 100 ppm", "result": "1.5 × 10^8 CFU/ml"}, {"measurement": "CFU/ml MRSE 51625", "setting": "MRSE 51625; 100 ppm", "result": "1.5 × 10^6 CFU/ml"}, {"measurement": "CFU/ml MRSA-006", "setting": "MRSA-006; 100 ppm", "result": "1.4 × 10^5 CFU/ml"}, {"measurement": "Zone of inhibition (mm) MRSE 700563", "setting": "MRSE 700563 [2]; 60 ug/cm^2, 48 hours at 37° C.", "result": 0, "unit": "mm"}]}
